According to PubChem BioAssay (NCI):
Where “and” joins values, the source holds several entries; their conditions need not be identical. Equal values may be shown once.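 Grown in 96-well plates, cells were treated for 48 hours with each compound at five concentrations. Insufficient inhibition: endpoint recorded as highest concentration tested. GI50 marks 50% less growth. TGI: concentration producing complete growth inhibition.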

Key:
Assay in all cases: NCI tumour cell line growth inhibition, 48 h
SW-620 colon = tested on: SW-620 colon
SNB-19 CNS = tested on: SNB-19 CNS
OVCAR-8 ovarian = tested on: OVCAR-8 ovarian
HOP-62 NSCLC = tested on: HOP-62 NSCLC
U251 CNS = tested on: U251 CNS
SF-539 CNS = tested on: SF-539 CNS
UO-31 renal = tested on: UO-31 renal
SK-MEL-2 melanoma = tested on: SK-MEL-2 melanoma
COLO 205 colon = tested on: COLO 205 colon
NCI-H23 lung = tested on: NCI-H23 lung
HCT-116 colon = tested on: HCT-116 colon
HL-60(TB) leukemia = tested on: HL-60(TB) leukemia
HOP-18 NSCLC = tested on: HOP-18 NSCLC
M19-MEL melanoma = tested on: M19-MEL melanoma
MDA-MB-231 breast = tested on: MDA-MB-231 breast
UACC-62 melanoma = tested on: UACC-62 melanoma
RXF 393 renal = tested on: RXF 393 renal
HCT-15 colon = tested on: HCT-15 colon
NCI-H226 lung = tested on: NCI-H226 lung
PC-3 prostate = tested on: PC-3 prostate
SF-295 CNS = tested on: SF-295 CNS
KM12 colon = tested on: KM12 colon
SK-OV-3 ovarian = tested on: SK-OV-3 ovarian
SN12C renal = tested on: SN12C renal
KM20L2 colon = tested on: KM20L2 colon
OVCAR-5 ovarian = tested on: OVCAR-5 ovarian
NCI-H522 lung = tested on: NCI-H522 lung
TK-10 renal = tested on: TK-10 renal
RXF-631 renal = tested on: RXF-631 renal
DLD-1 colon = tested on: DLD-1 colon
NCI-H460 lung = tested on: NCI-H460 lung
SNB-78 CNS = tested on: SNB-78 CNS
BT-549 breast = tested on: BT-549 breast
M14 melanoma = tested on: M14 melanoma
ACHN renal = tested on: ACHN renal
MDA-N = tested on: MDA-N
CAKI-1 renal = tested on: CAKI-1 renal
A549 NSCLC = tested on: A549 NSCLC
RPMI-8226 leukemia = tested on: RPMI-8226 leukemia
786-0 renal = tested on: 786-0 renal
T-47D breast = tested on: T-47D breast
MCF7 breast = tested on: MCF7 breast
MALME-3M melanoma = tested on: MALME-3M melanoma
DU-145 prostate = tested on: DU-145 prostate
HCC-2998 colon = tested on: HCC-2998 colon
SK-MEL-5 melanoma = tested on: SK-MEL-5 melanoma
A498 renal = tested on: A498 renal
CCRF-CEM leukemia = tested on: CCRF-CEM leukemia
SF-268 CNS = tested on: SF-268 CNS
EKVX NSCLC = tested on: EKVX NSCLC
HS 578T breast = tested on: HS 578T breast
XF 498 CNS = tested on: XF 498 CNS
UACC-257 melanoma = tested on: UACC-257 melanoma
SK-MEL-28 melanoma = tested on: SK-MEL-28 melanoma
K-562 leukemia = tested on: K-562 leukemia
DMS 273 small cell lung = tested on: DMS 273 small cell lung
HOP-92 NSCLC = tested on: HOP-92 NSCLC
SNB-75 CNS = tested on: SNB-75 CNS
IGROV1 ovarian = tested on: IGROV1 ovarian
LXFL 529 NSCLC = tested on: LXFL 529 NSCLC
OVCAR-4 ovarian = tested on: OVCAR-4 ovarian
LOX IMVI melanoma = tested on: LOX IMVI melanoma
MOLT-4 leukemia = tested on: MOLT-4 leukemia
OVCAR-3 ovarian = tested on: OVCAR-3 ovarian
HT29 colon = tested on: HT29 colon

In the case of `N=S(c1ccccc1[N+](=O)[O-])c1ccccc1[N+](=O)[O-]`, the GI50 (SW-620 colon) is reported as 1.14 µM and 2.47 µM, the TGI (SW-620 colon) is reported as 2.95 µM and 10 µM and the TGI (SNB-19 CNS) is reported as 22.5 µM and 20.9 µM. The TGI (OVCAR-8 ovarian) was 5.4 µM and 13.1 µM, the TGI (HOP-62 NSCLC) was 8.51 µM and 10.8 µM and the GI50 (U251 CNS) was 14.5 µM and 16 µM. The TGI (U251 CNS) was 27.7 µM and 29.5 µM, the TGI (SF-539 CNS) was 6.9 µM and 9.89 µM and the TGI (UO-31 renal) was 3.94 µM and 7.44 µM. The TGI (SK-MEL-2 melanoma) was 7.97 µM and 9.86 µM, the TGI (COLO 205 colon) was 2.77 µM and 4.12 µM and the TGI (NCI-H23 lung) was 6.77 µM and 11 µM. For the same compound, the TGI (HCT-116 colon) was 3.28 µM and 3.58 µM, the TGI (HL-60(TB) leukemia) was 2.57 µM and 3.39 µM and the TGI (HOP-18 NSCLC) was 19.5 µM and 15.8 µM. For the same compound, the TGI (M19-MEL melanoma) was 12.3 µM and 6.84 µM, the TGI (MDA-MB-231 breast) was 3.4 µM and the TGI (UACC-62 melanoma) was 9.13 µM and 10.2 µM. For the same compound, the TGI (RXF 393 renal) was 5.6 µM and 14.4 µM, the TGI (HCT-15 colon) was 2.06 µM and 3.72 µM and the GI50 (NCI-H226 lung) was 12.6 µM. For the same compound, the TGI (NCI-H226 lung) was 12.3 µM and 30.1 µM, the TGI (PC-3 prostate) was 2.98 µM and the GI50 (SF-295 CNS) was 2.45 µM and 5.99 µM. The TGI (SF-295 CNS) was 6.16 µM and 15.4 µM, the TGI (KM12 colon) was 7.31 µM and 16.7 µM and the TGI (SK-OV-3 ovarian) was 17 µM and 15.7 µM. For the same compound, the TGI (SN12C renal) was 2.89 µM and 3.19 µM, the GI50 (KM20L2 colon) was 5.21 µM and 12.9 µM and the TGI (KM20L2 colon) was 11.2 µM and 27.4 µM. The TGI (OVCAR-5 ovarian) was 7.69 µM and 11.8 µM, the TGI (NCI-H522 lung) was 1.2 µM and 1.1 µM and the TGI (TK-10 renal) was 7.42 µM and 6.53 µM. The TGI (RXF-631 renal) was 3.43 µM, the GI50 (DLD-1 colon) was 1.81 µM and 0.636 µM and the TGI (DLD-1 colon) was 4.15 µM and 2.08 µM. For the same compound, the GI50 (NCI-H460 lung) was 7.83 µM and 14.4 µM, the TGI (NCI-H460 lung) was 21.5 µM and 32 µM and the TGI (SNB-78 CNS) was 9.2 µM and 8.28 µM. The TGI (BT-549 breast) was 3.13 µM, the TGI (M14 melanoma) was 8.88 µM and 16.4 µM and the TGI (ACHN renal) was 3.22 µM and 3.61 µM. For the same compound, the TGI (MDA-N) was 2.83 µM, the TGI (CAKI-1 renal) was 4.19 µM and 12 µM and the TGI (A549 NSCLC) was 9.72 µM and 15.6 µM. The GI50 (RPMI-8226 leukemia) was 3.93 µM, the TGI (RPMI-8226 leukemia) was 4.47 µM and 18.8 µM and the TGI (786-0 renal) was 3.93 µM and 4.67 µM. The TGI (T-47D breast) was 0.934 µM, the TGI (MCF7 breast) was 0.266 µM and the TGI (MALME-3M melanoma) was 6.1 µM and 7.33 µM. The TGI (DU-145 prostate) was 7.38 µM, the TGI (HCC-2998 colon) was 7.11 µM and 9.66 µM and the TGI (SK-MEL-5 melanoma) was 3.83 µM and 8.22 µM. For the same compound, the TGI (A498 renal) was 43.5 µM and 32.2 µM, the TGI (CCRF-CEM leukemia) was 7.79 µM and 2.7 µM and the TGI (SF-268 CNS) was 11.9 µM and 5.94 µM. For the same compound, the TGI (EKVX NSCLC) was 11 µM and 20.8 µM, the TGI (HS 578T breast) was over 100 µM and the GI50 (XF 498 CNS) was 4.84 µM and 2.14 µM. For the same compound, the TGI (XF 498 CNS) was 11.5 µM and 6.15 µM, the TGI (UACC-257 melanoma) was 6.51 µM and 10.1 µM and the TGI (SK-MEL-28 melanoma) was 10.9 µM and 11.3 µM. For the same compound, the GI50 (K-562 leukemia) was 2.19 µM, the TGI (K-562 leukemia) was 7.29 µM and the TGI (DMS 273 small cell lung) was 5.15 µM and 7.87 µM. The TGI (HOP-92 NSCLC) was 4.02 µM and 4.39 µM, the TGI (SNB-75 CNS) was 20.5 µM and 15.6 µM and the TGI (IGROV1 ovarian) was 4.49 µM and 6.5 µM. For the same compound, the TGI (LXFL 529 NSCLC) was 7.83 µM and 5.92 µM, the TGI (OVCAR-4 ovarian) was 2.05 µM and 1.11 µM and the TGI (LOX IMVI melanoma) was 1.68 µM and 2.58 µM. The GI50 (MOLT-4 leukemia) was 3.93 µM, the TGI (MOLT-4 leukemia) was 4.7 µM and 20.4 µM and the TGI (OVCAR-3 ovarian) was 1.63 µM and 3.05 µM. For the same compound, the GI50 (HT29 colon) was 1.54 µM and 3.83 µM and the TGI (HT29 colon) was 5.16 µM and 8.69 µM.
